Assay results from US12338237B2, “Derivatives having 1,2,3,4-tetrahydronaphthalene moiety or pharmaceutically acceptable salt thereof and pharmaceutical compositions comprising the same” (YUHAN CORPORATION, priority 2019, dated 2025).
Where two headings read alike, the source gives them in different places.

Assays:
[1] = molecular target: glucosylceramide synthase (GCS) (Homo sapiens (Human), UniProt Q16739); assay: Evaluation of inhibitory activities against GCS (enzyme reaction with A549 cell lysate, NBD C6-ceramide, HPLC fluorescence); assay type: biochemical; conditions: GCS activity in A549 cell lysate, 37° C. for 90 minutes
Sequence of glucosylceramide synthase (GCS) (Q16739 whole entry, looked up): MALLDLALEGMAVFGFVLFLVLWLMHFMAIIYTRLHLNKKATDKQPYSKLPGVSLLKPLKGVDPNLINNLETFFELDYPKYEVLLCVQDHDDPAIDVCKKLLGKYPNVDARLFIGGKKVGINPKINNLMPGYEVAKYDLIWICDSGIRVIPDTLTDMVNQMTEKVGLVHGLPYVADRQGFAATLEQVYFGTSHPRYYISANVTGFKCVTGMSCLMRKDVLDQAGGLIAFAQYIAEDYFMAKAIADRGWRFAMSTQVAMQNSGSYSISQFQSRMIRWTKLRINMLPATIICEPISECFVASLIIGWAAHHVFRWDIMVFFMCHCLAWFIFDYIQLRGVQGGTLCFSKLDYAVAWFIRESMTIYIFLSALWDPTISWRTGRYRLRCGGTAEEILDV
Method: Ibiglustat, known as a GCS inhibitor, was used as a control.
After the cells attached to the culture dish were washed with phosphate buffered saline (PBS), the cells were scraped off with a cell scraper and then centrifuged (4000 rpm, 3 min, 4° C.) to collect the cells in a 50 ml tube. The cell pellets were suspended in a lysis buffer (50 mM HEPES, pH 7.3, containing 1× the protease/phosphatase inhibitor cocktail), lysed by sonication, and then the lysate was centrifuged (13000 rpm, 10 min, 4° C.). The obtained supernatant was used for the quantitative analysis of proteins. The amount of proteins was measured using the BCA protein assay kit, using bovine serum albumin as a standard.
Enzymatic reactions were initiated by sequentially adding the following reaction materials to a 96 deep-well plate. Thereafter, the enzymatic reactions were performed at 37° C. for 90 minutes.
The enzymatic reactions were stopped by adding 100 μl of chloroform/methanol (2:1, v/v). After vortexing for 15 seconds, each mixture was centrifuged (4000 rpm, 10 min, 18° C.). The lower layer (50 μl) was transferred to a new 96 deep-well plate and dried with a reduced concentrator.
Data analysis was performed by the following equations. % Area (Sample)=Area (GlcCer)/[Area (Cer)+Area (GlcCer)]×100 % GCS activity=[Area(Sample)−Area(ibiglustat)]/[Area(DMSO)−Area(ibiglustat)]×100

GM1 production = assay: cells; assay type: cell-based

SMILES	IC50 [1] [nM]	IC50 (GM1 production; Homo sapiens, Jurkat, 72 h) [nM]	IC50 (GM1 production; read-out: IC50) [nM]
O=C(NC1CCCc2cc(-c3ccccc3OC(F)(F)F)ccc21)O[C@@H]1CN2CCC1CC2 (stereo partly drawn) [Example 12, (S)-quinuclidin-3-yl (6-(2-(trifluoromethoxy)phenyl)-1,2,3,4-tetrahydronaphthalen-1-yl)carbamate]	9.28	19.6	–
O=C(NC1c2cc(-c3ccccc3OC(F)(F)F)ccc2CCC12CC2)O[C@@H]1CN2CCC1CC2 (stereo partly drawn) [Example 182, (S)-quinuclidin-3-yl (7′-(2-(trifluoromethoxy)phenyl)-3′,4′-dihydro-1′H-spiro[cyclopropane-1,2′-naphthalen]-1′-yl)carbamate]	11.9	40.4	–
COCCOc1ccc(-c2ccc3c(c2)CCC2(CC2)C3NC(=O)O[C@@H]2CN3CCC2CC3)cc1 (stereo partly drawn) [Example 194, (S)-quinuclidin-3-yl (6′-(4-(2-methoxyethoxy)phenyl)-3′,4′-dihydro-1′H-spiro[cyclopropane-1,2′-naphthalen]-1′-yl)carbamate]	1.03	7.92	–
CC1(C)CCc2cc(-c3cccc(C(F)(F)F)c3)ccc2C1NC(=O)O[C@@H]1CN2CCC1CC2 (stereo partly drawn) [Example 92, (S)-quinuclidin-3-yl (2,2-dimethyl-6-(3-(trifluoromethyl)phenyl)-1,2,3,4-tetrahydronaphthalen-1-yl)carbamate]	1.04	2.72	–
CC1(C)CCc2cc(-c3ccc(Cl)c(Cl)c3)ccc2C1NC(=O)O[C@@H]1CN2CCC1CC2 (stereo partly drawn) [Example 106, (S)-quinuclidin-3-yl (6-(3,4-dichlorophenyl)-2,2-dimethyl-1,2,3,4-tetrahydronaphthalen-1-yl)carbamate]	4.05	3.33	–
CC1(C)CCc2cc(-c3ccc(F)c(F)c3F)ccc2C1NC(=O)O[C@@H]1CN2CCC1CC2 (stereo partly drawn) [Example 109, (S)-quinuclidin-3-yl (2,2-dimethyl-6-(2,3,4-trifluorophenyl)-1,2,3,4-tetrahydronaphthalen-1-yl)carbamate]	2.89	2.97	–
COc1ccc(-c2ccc3c(c2)CCC2(CC2)C3NC(=O)O[C@@H]2CN3CCC2CC3)c(Cl)c1 (stereo partly drawn) [Example 200, (S)-quinuclidin-3-yl (6′-(2-chloro-4-methoxyphenyl)-3′,4′-dihydro-1′H-spiro[cyclopropane-1,2′-naphthalen]-1′-yl)carbamate]	8.85	46	–
O=C(NC1CCCc2ccc(-c3cccc(F)c3)cc21)O[C@@H]1CN2CCC1CC2 (stereo partly shown) [Example 58]	10.8	–	73.5
O=C(NC1CCCc2cc(-c3ccccc3C(F)(F)F)ccc21)O[C@@H]1CN2CCC1CC2 (stereo partly drawn) [Example 11, (S)-quinuclidin-3-yl (6-(2-(trifluoromethyl)phenyl)-1,2,3,4-tetrahydronaphthalen-1-yl)carbamate]	8.18	38.5	–
CCc1cccc(-c2ccc3c(c2)CCC2(CC2)C3NC(=O)O[C@@H]2CN3CCC2CC3)c1 (stereo partly drawn) [Example 203, (S)-quinuclidin-3-yl (6′-(3-ethylphenyl)-3′,4′-dihydro-1′H-spiro[cyclopropane-1,2′-naphthalen]-1′-yl)carbamate]	13.5	35	–
COCOc1ccc(-c2ccc3c(c2)CCCC3NC(=O)O[C@@H]2CN3CCC2CC3)cc1 (stereo partly drawn) [Example 26, (S)-quinuclidin-3-yl (6-(4-(methoxymethoxy)phenyl)-1,2,3,4-tetrahydronaphthalen-1-yl)carbamate]	6.61	30.8	–
CCCOc1ccc(-c2ccc3c(c2)CCC2(CC2)C3NC(=O)O[C@@H]2CN3CCC2CC3)cc1 (stereo partly drawn) [Example 220, (S)-quinuclidin-3-yl (6′-(4-propoxyphenyl)-3′,4′-dihydro-1′H-spiro[cyclopropane-1,2′-naphthalen]-1′-yl) carbamate]	0.63	–	6.7
O=C(NC1c2ccc(-c3cccc(Cl)c3)cc2CCC12CC2)O[C@@H]1CN2CCC1CC2 (stereo partly drawn) [Example 191, (S)-quinuclidin-3-yl (6′-(3-chlorophenyl)-3′,4′-dihydro-1′H-spiro[cyclopropane-1,2′-naphthalen]-1′-yl)carbamate]	9.9	14.4	–
COc1ccc(-c2ccc3c(c2)C(NC(=O)O[C@@H]2CN4CCC2CC4)CCC3)cc1 (stereo partly drawn) [Example 80, (S)-quinuclidin-3-yl (7-(4-methoxyphenyl)-1,2,3,4-tetrahydronaphthalen-1-yl)carbamate]	15.4	225	–
O=C(NC1CCCc2cc(-c3ccc4c(c3)OCCO4)ccc21)O[C@@H]1CN2CCC1CC2 (stereo partly drawn) [Example 43, (S)-quinuclidin-3-yl (6-(2,3-dihydrobenzo[b][1,4]dioxin-6-yl)-1,2,3,4-tetrahydronaphthalen-1-yl)carbamate]	6.06	616	–
CC1(C)CCc2cc(-c3ccnc(C(F)(F)F)c3)ccc2C1NC(=O)O[C@@H]1CN2CCC1CC2 (stereo partly drawn) [Example 119, (S)-quinuclidin-3-yl (2,2-dimethyl-6-(2-(trifluoromethyl)pyridin-4-yl)-1,2,3,4-tetrahydronaphthalen-1-yl) carbamate]	11.2	–	1.86
O=C(NC1c2cc(-c3cccc(F)c3)ccc2CCC12CC2)O[C@@H]1CN2CCC1CC2 (stereo partly drawn) [Example 175, (S)-quinuclidin-3-yl (7′-(3-fluorophenyl)-3′,4′-dihydro-1′H-spiro[cyclopropane-1,2′-naphthalen]-1′-yl)carbamate]	14.8	167	–
CC1(C)CCc2ccc(-c3ccc(OC(F)F)cc3)cc2C1NC(=O)O[C@@H]1CN2CCC1CC2 (stereo partly drawn) [Example 164, (S)-quinuclidin-3-yl (7-(4-(difluoromethoxy)phenyl)-2,2-dimethyl-1,2,3,4-tetrahydronaphthalen-1-yl)carbamate]	9.23	26.1	–
CC1(C)CCc2cc(-c3cccc(C(F)F)c3)ccc2C1NC(=O)O[C@@H]1CN2CCC1CC2 (stereo partly drawn) [Example 130, (S)-quinuclidin-3-yl (6-(3-(difluoromethyl)phenyl)-2,2-dimethyl-1,2,3,4-tetrahydronaphthalen-1-yl)carbamate]	1.24	1.3	–
O=C(NC1CCCc2cc(-c3ccc(F)c(F)c3F)ccc21)O[C@@H]1CN2CCC1CC2 (stereo partly drawn) [Example 20, (S)-quinuclidin-3-yl (6-(2,3,4-trifluorophenyl)-1,2,3,4-tetrahydronaphthalen-1-yl)carbamate]	7.16	84.4	–
CN(C)c1cccc(-c2ccc3c(c2)CCC2(CC2)C3NC(=O)O[C@@H]2CN3CCC2CC3)c1 (stereo partly drawn) [Example 207, (S)-quinuclidin-3-yl (6′-(3-(dimethylamino)phenyl)-3′,4′-dihydro-1′H-spiro[cyclopropane-1,2′-naphthalen]-1′-yl)carbamate]	23.2	57.3	–
O=C(NC1CCCc2cc(-c3ccccc3F)ccc21)O[C@@H]1CN2CCC1CC2 (stereo partly drawn) [Example 9, (S)-quinuclidin-3-yl (6-(2-fluorophenyl)-1,2,3,4-tetrahydronaphthalen-1-yl)carbamate]	2.65	41.3	–
O=C(NC1c2ccc(-c3ccc(OC(F)(F)F)cc3)cc2CCC12CC2)O[C@@H]1CN2CCC1CC2 (stereo partly drawn) [Example 189, (S)-quinuclidin-3-yl (6′-(4-(trifluoromethoxy)phenyl)-3′,4′-dihydro-1′H-spiro[cyclopropane-1,2′-naphthalen]-1′-yl)carbamate]	18.9	25.1	–
